From patent US8314123B2, “5, 6, or 7-substituted -3-(hetero) arylisoquinolinamine derivatives and therapeutic use thereof” (Rexahn Pharmaceuticals, Inc., priority 2006, dated 2012) come the findings set out here.

Bounds are passed on as bounds.

What all share (type): cell-based
For experiment [1], the system named is SNB-19 (glioblastoma). Nature of the experiment: In vitro cell proliferation assay (SRB), SNB19. The note with it: Homo sapiens, SRB method, 96 hours, read-out: Inhibition of cell growth (IC50, μM) SNB19. The protocol:
(§1) Cancer cell lines to determine the effect of 5, 6, or 7-substituted-3-(hetero)arylisoquinolinamine compounds were obtained from the following sources: Human MDA-MB-231 (breast), PC3 (prostate), HCT-15 (colon), HCT116 (colon), OVCAR-3 (ovary), Caki-1 (kidney), PANC-1 (pancreas), SNB-19 (glioblastoma) and SK-MEL-28 (melanoma) from the American Type Culture Collection (ATCC) (Manassas, Va.). PC3, OVCAR-3, SK-MEL-28 and SNB-19 were grown in RPMI1640 medium (Invitrogen, Carlsbad, Calif.) supplemented with 10% fetal bovine serum (“FBS”), 1 mM sodium pyruvate, 10 mM HEPES and 100 U/ml penicillin and 100 μg/ml streptomycin (“P/S”). MDA-MB-231, Caki-1, HCT-15 (colon) and PANC-1 cells were maintained in Dulbecco's modified Eagle's medium (“DMEM”, Invitrogen) supplemented with 10% FBS, P/S and 10 mM HEPES. HCT116 cells were maintained in DMEM supplemented with 10% FBS, P/S and 10 mM HEPES for in vitro cell proliferation assay and in RPMI1640 medium supplemented with 10% FBS, 1 mM sodium pyruvate, 10 mM HEPES and P/S for in vitro cell cycle analysis. All cells were incubated at 37° C. under humidified 5% CO2.
(§2) The growth inhibition of the 5, 6, or 7-substituted-3-(hetero)arylisoquinolinamine derivatives against a variety of human tumor cells was evaluated to study the relative importance of particular substituent groups on the compounds. The 5, 6, or 7-substituted-3-(hetero)arylisoquinolinamine derivatives, prepared as described above, were tested with DMSO as a control.
(§3) The growth inhibition assay of representative 5, 6, or 7-substituted-3-(hetero)arylisoquinolinamine derivatives against human tumor cell lines was performed using the Sulforhodamine B (“SRB”) method (Skehan et al., J. National Cancer Institute, 82: 1107-1112 (1990)). Briefly, exponentially growing tumor cells were seeded into a 96-well plate at a density of 2-3×10^3 cells/well and treated with 5, 6, or 7-substituted-3-(hetero)arylisoquinolinamine compounds the next day. Triplicate wells were used for each treatment. The cells were incubated with the various compounds for 96 hours at 37° C. in a humidified 5% CO2 atmosphere. After 96-hour incubation, cells were fixed with 10% trichloroacetic acid (“TCA”), incubated for 1 hour at 4° C., and washed 3 times with tap water. Subsequently, cells were stained with 0.4% sulforhodamine B in 1% acetic acid for 30 minutes, washed 4 times with 1% acetic acid, and air-dried again. After 5 minutes agitation in 10 mM Tris solution, the absorbance of each well was measured at 530 nm using Benchmark Plus Microplate reader (Bio-Rad Laboratories, Hercules, Calif.).
(§4) To translate the OD530 values into the number of live cells in each well, the OD530 values were compared to those on standard OD530-versus-cell number curves generated for each cell line. The percent survival was calculated using the formula: % Survival=live cell number [test]/live cell number [control]×100
(§5) The IC50 values were calculated by non-linear regression analysis.

For experiment [2], the system named is OVCAR-3 (ovary). Nature of the experiment: In vitro cell proliferation assay (SRB), OVCAR3. To be noted: Homo sapiens, SRB method, 96 hours, read-out: Inhibition of cell growth (IC50, μM) OVCAR3. The protocol:
as §1, §2, §3, §4, §5

Experiment [3] deals with SK-MEL-28 (melanoma). Kind of experiment: In vitro cell proliferation assay (SRB), SK-MEL-28. The note with it: Homo sapiens, SRB method, 96 hours, read-out: Inhibition of cell growth (IC50, μM) SK-MEL-28. The protocol: as §1, §2, §3, §4, §5
The test system of experiment [4] is Caki-1 (kidney). Kind of experiment: In vitro cell proliferation assay (SRB), Caki-1. The note with it: Homo sapiens, SRB method, 96 hours, read-out: Inhibition of cell growth (IC50, μM) Caki-1. The protocol:
as §1, §2, §3, §4, §5

Experiment [5] has as its system HCT116 (colon). Kind of experiment: In vitro cell proliferation assay (SRB), HCT116. To be noted: Homo sapiens, HCT-116; SRB method, 96 hours; Table 3; read-out: Inhibition of cell growth (IC50, μM) HCT116. The protocol:
as §1, §2, §3, §4, §5

Experiment [6] has as its system PC3 (prostate). Nature of the experiment: In vitro cell proliferation assay (SRB), PC3. To be noted: Homo sapiens; SRB method, 96 hours; read-out: Inhibition of cell growth (IC50, μM) PC3. The protocol:
as §1, §2, §3, §4, §5

The test system of experiment [7] is PANC-1 (pancreas). Nature of the experiment: In vitro cell proliferation assay (SRB), PANC-1. To be noted: Homo sapiens, SRB method, 96 hours, read-out: Inhibition of cell growth (IC50, μM) PANC-1. The protocol:
as §1, §2, §3, §4, §5

Experiment [8] has as its system MDA-MB-231 (breast). Kind of experiment: In vitro cell proliferation assay (SRB), MDA-MB-231. The note with it: Homo sapiens, SRB method, 96 hours, read-out: Inhibition of cell growth (IC50, μM) MDA-MB-231. How it is done: as §1, §2, §3, §4, §5

Take `Cc1cccc(-c2cc3cc(C)ccc3c(N)n2)c1` [Compound 35, 6-Methyl-3-m-tolylisoquinolin-1-amine]: the IC50 in experiment [1] is 0.75 µM; in experiment [2], 0.47 µM; in experiment [3], 0.72 µM; in experiment [4] it was 0.69 µM; in experiment [5], 0.59 µM; in experiment [6], 1.19 µM. The IC50 in experiment [7] stood at 1.28 µM; in experiment [8] it was 0.57 µM.
In the case of `Cc1ccc2cc(-c3ccccc3F)nc(N)c2c1` [Compound 41, 3-(2-Fluorophenyl)-7-methylisoquinolin-1-amine], the IC50 in experiment [1] was determined as 2.2 µM; in experiment [2], 0.91 µM; in experiment [3] it was 1.62 µM; in experiment [4], 0.59 µM; in experiment [5], 1.22 µM; in experiment [6] it was 2.76 µM. In addition, the IC50 in experiment [7] was determined as 2.14 µM; in experiment [8] it was 0.72 µM.
Turning to `COc1cc2cc(-c3cccc(C)c3)nc(N)c2cc1OC` [Compound 54, 6,7-Dimethoxy-3-m-tolylisoquinolin-1-amine], the IC50 in experiment [1] amounted to 1.56 µM; in experiment [2], 0.58 µM; in experiment [3], 1.12 µM; in experiment [4], 1.78 µM; in experiment [5], 2.32 µM; in experiment [6] it was 2.5 µM. In addition, the IC50 turned out to be 2.27 µM in experiment [7] and 0.79 µM in experiment [8].
With `COc1cc2cc(-c3c(C)cccc3C)nc(N)c2cc1OC` [Compound 53, 6,7-Dimethoxy-3-(2,6-dimethylphenyl)isoquinolin-1-amine], the 50% inhibitory concentration (IC50) in experiment [1] came to 0.42 µM; in experiment [2] it was 0.16 µM; in experiment [3] it was 0.63 µM; in experiment [4], 0.53 µM; in experiment [5] it was 0.79 µM; in experiment [6], 0.68 µM. Besides, the IC50 is 0.54 µM in experiment [7] and 0.25 µM in experiment [8].
Take `COc1ccccc1-c1cc2cc(C)ccc2c(N)n1` [Compound 24, 3-(2-Methoxyphenyl)-6-methylisoquinolin-1-amine]: the IC50 in experiment [1] is 1.13 µM; in experiment [2], 0.49 µM; in experiment [3], 0.8 µM; in experiment [4] it was 0.35 µM; in experiment [5], 0.67 µM; in experiment [6], > 3 µM. The 50% inhibitory concentration (IC50) in experiment [7] was found to be 0.93 µM; in experiment [8], 0.44 µM.
In the case of `COc1cc2cc(-c3ccccc3C)nc(N)c2cc1OC` [Compound 56, 6,7-Dimethoxy-3-o-tolylisoquinolin-1-amine], the IC50 in experiment [1] came to 0.56 µM; in experiment [2], 0.38 µM; in experiment [3], 0.91 µM; in experiment [4], 0.67 µM; in experiment [5], 0.78 µM; in experiment [6], 1.25 µM. The IC50 came out at 0.83 µM in experiment [7] and 0.54 µM in experiment [8].
For the molecule `COc1cccc(-c2cc3ccc(C)cc3c(N)n2)c1` [Compound 38, 3-(3-Methoxyphenyl)-7-methylisoquinolin-1-amine], the IC50 in experiment [1] turned out to be 0.48 µM; in experiment [2], 0.24 µM; in experiment [3], 0.41 µM; in experiment [4] it was 0.14 µM; in experiment [5], 0.21 µM; in experiment [6], 0.42 µM. Further, the results for the IC50 in experiment [7] and in experiment [8] were 0.47 µM and 0.17 µM, respectively.
As for `COc1ccc(-c2cc3cc(C)ccc3c(N)n2)cc1` [Compound 26, 3-(4-Methoxyphenyl)-6-methylisoquinolin-1-amine], the half-inhibitory concentration (IC50) in experiment [1] stood at 2.23 µM; in experiment [2], 0.79 µM; in experiment [3] it was 1.8 µM; in experiment [4], 0.75 µM; in experiment [5], 1.36 µM; in experiment [6] it was 2.98 µM. In addition, the IC50 in experiment [7] is 2.27 µM; in experiment [8] it was 0.93 µM.
Regarding `COc1cc(OC)cc(-c2cc3cc(OC)c(OC)cc3c(N)n2)c1` [Compound 55, 6,7-Dimethoxy-3-(3,5-dimethoxyphenyl)isoquinolin-1-amine], the IC50 is 0.4 µM in experiment [1]; 0.19 µM in experiment [2]; 0.69 µM in experiment [3]; 0.54 µM in experiment [4]; 0.77 µM in experiment [5]; 0.72 µM in experiment [6]. The figures for the IC50 in experiment [7] and in experiment [8] were 0.7 µM and 0.4 µM, respectively.
For `COc1cc(OC)cc(-c2cc3cc(C)ccc3c(N)n2)c1` [Compound 30, 3-(3,5-Dimethoxyphenyl)-6-methylisoquinolin-1-amine], the IC50 in experiment [1] was determined as 0.47 µM; in experiment [2], 0.18 µM; in experiment [3], 0.41 µM; in experiment [4], 0.16 µM; in experiment [5] it was 0.24 µM; in experiment [6], 0.43 µM. In addition, the IC50 in experiment [7] was 0.38 µM; in experiment [8] it was 0.18 µM.
Consider `COc1cc2cc(-c3ccccc3)nc(N)c2cc1OC` [Compound 51, 6,7-Dimethoxy-3-phenylisoquinolin-1-amine], for which the half-maximal inhibitory concentration (IC50) in experiment [1] amounted to 0.71 µM; in experiment [2], 0.27 µM; in experiment [3] it was 0.75 µM; in experiment [4], 0.59 µM; in experiment [5], 0.52 µM; in experiment [6], 0.58 µM. For the same molecule, the IC50 came out at 0.67 µM in experiment [7] and 0.44 µM in experiment [8].
For the molecule `COc1ccccc1-c1cc2ccc(C)cc2c(N)n1` [Compound 37, 3-(2-Methoxyphenyl)-7-methylisoquinolin-1-amine], the IC50 in experiment [1] was found to be 0.78 µM; in experiment [2], 0.51 µM; in experiment [3] it was 0.67 µM; in experiment [4], 0.22 µM; in experiment [5] it was 0.47 µM; in experiment [6] it was 1.01 µM. In addition, the results for the IC50 in experiment [7] and in experiment [8] were 0.68 µM and 0.32 µM, respectively.
With `Cc1ccc2c(N)nc(-c3ccccc3F)cc2c1` [Compound 33, 3-(2-Fluorophenyl)-6-methylisoquinolin-1-amine], the IC50 turned out to be 1.51 µM in experiment [1]; 0.57 µM in experiment [2]; 1.07 µM in experiment [3]; 0.46 µM in experiment [4]; 0.7 µM in experiment [5]; 1.84 µM in experiment [6]. Moreover, the values for the IC50 in experiment [7] and in experiment [8] were 1.59 µM and 0.55 µM, respectively.
Regarding `COc1ccc(-c2cc3cc(C)ccc3c(N)n2)cc1OC` [Compound 27, 3-(3,4-Dimethoxyphenyl)-6-methylisoquinolin-1-amine], the IC50 was 2.15 µM in experiment [1]; 0.57 µM in experiment [2]; 1.41 µM in experiment [3]; 0.51 µM in experiment [4]; 0.85 µM in experiment [5]; 2.69 µM in experiment [6]. The results for the IC50 in experiment [7] and in experiment [8] were 1.75 µM and 0.66 µM, respectively.
As to `COc1ccc2c(N)nc(-c3ccccc3)cc2c1` [Compound 11, 6-methoxy-3-phenylisoquinolin-1-amine], the IC50 was 0.63 µM in experiment [1]; 0.27 µM in experiment [2]; 0.46 µM in experiment [3]; 0.47 µM in experiment [4]; 0.45 µM in experiment [5]; 0.77 µM in experiment [6]. Further, the IC50 turned out to be 0.65 µM in experiment [7] and 0.34 µM in experiment [8].
As to `Cc1cccc(-c2cc3ccc(C)cc3c(N)n2)c1` [Compound 49, 7-Methyl-3-m-tolylisoquinolin-1-amine], the concentration for half-maximal inhibition (IC50) in experiment [1] was determined as 0.53 µM; in experiment [2] it was 0.29 µM; in experiment [3] it was 0.5 µM; in experiment [4] it was 0.44 µM; in experiment [5], 0.28 µM; in experiment [6] it was 0.71 µM. The results for the half-maximal inhibitory concentration (IC50) in experiment [7] and in experiment [8] were 0.69 µM and 0.21 µM, respectively.
